Measurements from patent US4801697A, “Physiologically active substance TPI and production thereof” (Toyo Jozo Kabushiki Kaisha, priority 1985, dated 1989).
Converted amounts (≈) assume the structure as drawn.

system: bovine heart PDE; test: bovine heart PDE inhibitory action (5'-AMP produced from c-AMP measured by HPLC); type: biochemical; settings: 0.4 mM c-AMP, 30 μg protein PDE, pH 7.5, 30° C., 30 minutes
Procedure: 40 mM Tris-HCl buffer solution (pH 7.5), 2 mM magnesium chloride, 0.4 mM c-AMP, PDE (30 μg protein, Boehringer Mannheim Co.) and TPI are combined to form a reaction mixture (1.0 ml) and the same is incubated at 30° C. for 30 minutes.

| IC50 concentration [µg/mL] | SMILES |
| --- | --- |
| 5.4 (≈ 8.32 µM) | CCCCCCCc1cc(OC(=O)c2c(CCCCCCC)cc(O)cc2O[C@@H]2O[C@H](CO)[C@H](O)[C@H](O)[C@H]2O)cc(O)c1C(=O)O [TPI-2] |
| 2.8 (≈ 4.05 µM) | CCCCCCCc1cc(OC(=O)c2c(CCCCCCC)cc(O)cc2O[C@@H]2O[C@H](COC(C)=O)[C@@H](O)[C@H](O)[C@H]2O)cc(O)c1C(=O)O [TPI-3] |
| 3.5 (≈ 5.07 µM) | CCCCCCCc1cc(OC(=O)c2c(CCCCCCC)cc(O)cc2O[C@@H]2O[C@H](COC(C)=O)[C@H](O)[C@H](O)[C@H]2O)cc(O)c1C(=O)O [TPI-4] |
| 2.3 (≈ 4.73 µM) | CCCCCCCc1cc(OC(=O)c2c(O)cc(O)cc2CCCCCCC)cc(O)c1C(=O)O [TPI-5] |

Second part, the molecule before the results:

| SMILES | IC50 concentration [µg/mL] |
| --- | --- |
| COC(=O)C1=C(C)NC(C)=C(C(=O)OCCN(C)Cc2ccccc2)C1c1cccc([N+](=O)[O-])c1 (stereo not shown) [Nicardipine, nicardipine, reference compound] | 6.0 (≈ 12.5 µM) |
| COc1ccc(Cc2nccc3cc(OC)c(OC)cc23)cc1OC [Papaverine, papaverine, reference compound] | 25 (≈ 73.7 µM) |
| CCCCCCCc1cc(OC(=O)c2c(CCCCCCC)cc(O)cc2O[C@@H]2O[C@H](CO)[C@@H](O)[C@H](O)[C@H]2O)cc(O)c1C(=O)O [TPI-1] | 2.8 (≈ 4.32 µM) |
| Cn1c(=O)c2[nH]cnc2n(C)c1=O [Teophyllin, theophyllin, reference compound] | 470 (≈ 2610 µM) |

system: not listed separately; test: Solubility; type: physicochemical; settings: hexane, benzene and petroleum ether

| Solubility: insoluble | SMILES |
| --- | --- |
| Insoluble | CCCCCCCc1cc(OC(=O)c2c(CCCCCCC)cc(O)cc2O[C@@H]2O[C@H](CO)[C@H](O)[C@H](O)[C@H]2O)cc(O)c1C(=O)O [TPI-2] |
| Insoluble | CCCCCCCc1cc(OC(=O)c2c(CCCCCCC)cc(O)cc2O[C@@H]2O[C@H](COC(C)=O)[C@@H](O)[C@H](O)[C@H]2O)cc(O)c1C(=O)O [TPI-3] |
| Insoluble | CCCCCCCc1cc(OC(=O)c2c(CCCCCCC)cc(O)cc2O[C@@H]2O[C@H](COC(C)=O)[C@H](O)[C@H](O)[C@H]2O)cc(O)c1C(=O)O [TPI-4] |
| Insoluble | CCCCCCCc1cc(OC(=O)c2c(O)cc(O)cc2CCCCCCC)cc(O)c1C(=O)O [TPI-5] |

| SMILES | Solubility: insoluble |
| --- | --- |
| CCCCCCCc1cc(OC(=O)c2c(CCCCCCC)cc(O)cc2O[C@@H]2O[C@H](CO)[C@@H](O)[C@H](O)[C@H]2O)cc(O)c1C(=O)O [TPI-1] | Insoluble |

same assay, conditions: lower alcohol such as methanol, ethanol and butanol, chloroform, ethyl acetate, dimethylsulfoxide, aqueous alkali

| Solubility: soluble | SMILES |
| --- | --- |
| Soluble | CCCCCCCc1cc(OC(=O)c2c(O)cc(O)cc2CCCCCCC)cc(O)c1C(=O)O [TPI-5] |

same assay, conditions: lower alcohol such as methanol, ethanol and butanol, ethyl acetate, dimethylsulfoxide, aqueous alkali

| Solubility: soluble | SMILES |
| --- | --- |
| Soluble | CCCCCCCc1cc(OC(=O)c2c(CCCCCCC)cc(O)cc2O[C@@H]2O[C@H](CO)[C@H](O)[C@H](O)[C@H]2O)cc(O)c1C(=O)O [TPI-2] |
| Soluble | CCCCCCCc1cc(OC(=O)c2c(CCCCCCC)cc(O)cc2O[C@@H]2O[C@H](COC(C)=O)[C@@H](O)[C@H](O)[C@H]2O)cc(O)c1C(=O)O [TPI-3] |
| Soluble | CCCCCCCc1cc(OC(=O)c2c(CCCCCCC)cc(O)cc2O[C@@H]2O[C@H](COC(C)=O)[C@H](O)[C@H](O)[C@H]2O)cc(O)c1C(=O)O [TPI-4] |

| SMILES | Solubility: soluble |
| --- | --- |
| CCCCCCCc1cc(OC(=O)c2c(CCCCCCC)cc(O)cc2O[C@@H]2O[C@H](CO)[C@@H](O)[C@H](O)[C@H]2O)cc(O)c1C(=O)O [TPI-1] | Soluble |

system: mice; test: acute toxicity, intraperitoneal injection in mice; type: in vivo; settings: 100 mg/kg intraperitoneally

| SMILES | deaths |
| --- | --- |
| CCCCCCCc1cc(OC(=O)c2c(CCCCCCC)cc(O)cc2O[C@@H]2O[C@H](CO)[C@@H](O)[C@H](O)[C@H]2O)cc(O)c1C(=O)O [TPI-1] | No deaths occurred |
